{
  "source": "patent EP3967331A1",
  "about": "“ULTRA-SMALL FLUORESCENT ORGANIC NANOPARTICLES” (Centre national de la recherche scientifique, priority 2020, dated 2022)",
  "test": "Nile Red probing of the hydrophobic core",
  "format": "physicochemical",
  "details": "Nile Red 200 nM, excitation 540 nm, water",
  "procedure": "In contrast to the out-stretched configuration of a polymer brush, the folded monomolecular nanoparticle is expected to bear a hydrophobic core (Figure 1), similar to that of micelles made of surfactants. To evidence the presence of this core, we used a solvatochromic dye Nile Red, which is a common tool for identifying low polar environment of micelles^81 and single-chain polymeric NPs. Fluorescence spectra of Nile Red at fixed concentration (200 nM) were recorded with addition of different concentrations of fully PEGylated PMAO polymer with 5 mol% BDP1 (Figure12. A drastic increase in the fluorescence intensity of Nile Red was observed accompanied by ∼30 nm blue shift of the emission band (Figure12A,B,D. The increase in the intensity stabilized above 200 nM polymer concentration (Figure12C, which corresponded well to 1/1 dye/polymer molar ratio. Below this concentration, multiple Nile Red molecules per particle can be present, which leads to dye self-quenching, explaining lower intensity at lower polymer concentrations. On the other hand, the blue shifted emission of Nile Red at ∼630 nm indicates the presence of a hydrophobic binding site in these NPs. The NPs were compared with micelles of Tween 80, having a hydrophobic core formed by hydrocarbon chains. […]",
  "data": [
    {"smiles": "CCCCCCCC/C=C\\CCCCCCCC(=O)OCCOCC(OCCO)C1OCC(OCCO)C1OCCO", "note": "(stereo not shown) [Tween 80]", "values": [
      {"measurement": "Emission of Nile Red", "value": "~640", "unit": "nm"}
    ]}
  ]
}
